According to PMC4964015 (Annals of Clinical Microbiology and Antimicrobials, 2016):
Peptide text beside a SMILES is read from it.

Experiments:
[1] = tested on: S. meliloti cells; experiment: Membrane potential, DiOC2(3) red/green fluorescence (BacLight kit); format: cell-based, Sinorhizobium meliloti; settings: BacLight Bacterial Membrane Potential Kit
Excerpt: For the measurements, the BacLight™ Bacterial Membrane Potential Kit (Thermo Fisher Scientific) was used according to the instructions of the manufacturer.

[2] = tested on: S. meliloti outer membrane; experiment: Outer membrane permeability, NPN fluorescence; format: cell-based, Sinorhizobium meliloti; settings: for outer membrane permeabilization (NPN fluorescence): peptides tested at 50, 25, 12.5 and 6.25 µg/ml, 5 mM HEPES pH 7.2, 50 µg/ml = NCR335 6.4 µM, NCR247 16.6 µM, NCR001 9.5 µM, PMB 36 µM
Procedure: The cells from exponentially growing cultures were collected, washed and suspended in 5 mM HEPES buffer (pH=7.2). 80 µl NPN of 25 µM concentration and 100 µl of bacterial suspension (OD600=0.1) were pipetted into the wells of a black 96-well microtiter plate and the fluorescence were measured for 3 cycles (9 seconds/cycle) in a FLUOstar OPTIMA plate-reader (BMG Labtech). After the three cycles, 20 µl of peptide was added and the fluorescence were measured for an additional 18 cycles.

[3] = tested on: rhizobia (Sinorhizobium meliloti); experiment: Killing assay in phosphate buffer (number of living cells); format: cell-based; settings: 50 µg/ml peptide in phosphate buffer for three hours
Procedure: (§1) In this study, we investigated how NCR247 and NCR335 affect the cell surface as well as the outer and inner membranes (OM and IM respectively) of the α-Proteobacterium S. meliloti, the natural target of the peptides. We compared the effect of these NCR peptides to that of Polymyxin B (PMB), which alters bacterial outer membrane permeability and then disrupts the cytoplasmic membrane of gram-negative bacteria. […] NCR247 and NCR335 inhibited the growth of rhizobia at 25 and 12 µg/ml (Minimal Inhibitory Concentration), respectively, in broth microdilution assays, and were able to decrease the number of living cells by two and four orders of magnitude, respectively, when they were used at 50 µg/ml concentration in phosphate buffer for three hours. In other—including clinically relevant—bacteria, the minimal bactericid concentration of the peptides varied between 20 and 125 µg/ml (Additional file 1). […] Prolonging the treatment for 3 h caused no further changes, cells treated for 1 and 3 h were alike. These observations were in line with reported surface corrugation of the E. coli cell envelope by NCR247 [18]. Similar study on the NCR335 treated S. meliloti cultures could not be performed as the bacteria lost their attachment to the poly-L-lysine coated muscovite mica surface.

[4] = tested on: S. meliloti cells; experiment: Atomic force microscopy of immobilized cells; format: cell-based, Sinorhizobium meliloti
Excerpt: Details of the measurements and sample preparations are described in Reference 18.
Nagy K, Mikulass KR, Vegh AG, Kereszt A, Kondorosi E, Varo G, Szegletes Z: Interaction of cysteine-rich cationic antimicrobial peptides with intact bacteria and model membranes. Gen Physiol Biophys 2015, 34(2):135-144

[5] = tested on: Escherichia coli cells; settings: cited from earlier work
Excerpt: (§2) Extremely rich sources of AMPs are the plants where up to several hundreds of peptide-coding genes can be expressed in specific organs constitutively or induced locally or systematically by the attack of pathogenic microbes. […] In Medicago truncatula nodule cells infected with Sinorhizobium meliloti, hundreds ...

[6] = tested on: fungi; settings: cited from earlier work
Excerpt: as §2

[7] = tested on: gram-negative and gram-positive bacteria; settings: cited from earlier work
Excerpt: as §2

[8] = tested on: rhizobia (Sinorhizobium meliloti); experiment: Broth microdilution assay (Minimal Inhibitory Concentration); format: cell-based; settings: growth inhibition of rhizobia
Procedure: as §1

[9] = tested on: Sinorhizobium meliloti AK631; experiment: Minimal bactericid concentration (MBC); format: cell-based
[10] = tested on: Escherichia coli K12; experiment: Minimal bactericid concentration (MBC); format: cell-based
[11] = tested on: Salmonella typhimurium; experiment: Minimal bactericid concentration (MBC); format: cell-based
[12] = tested on: Pseudomonas aeruginosa; experiment: Minimal bactericid concentration (MBC); format: cell-based
[13] = tested on: Lactobacillus plantarum; experiment: Minimal bactericid concentration (MBC); format: cell-based
[14] = tested on: Listeria monocytogenes; experiment: Minimal bactericid concentration (MBC); format: cell-based
[15] = tested on: Staphylococcus aureus; experiment: Minimal bactericid concentration (MBC); format: cell-based

| Compound | effect on membrane potential (DiOC2(3) red/green fluorescence ratio) [1] | outer membrane permeabilization (NPN fluorescence) [2] | decrease of the number of living cells [3] | average height of bacteria (AFM) ([4]; 25 µg/ml, average height ~600 nm) | cell surface roughness / surface alterations (AFM) ([4]; treatment for 1 h, 3 h caused no further changes) | outer membrane damage (NPN fluorescence) ([2]; 25 µg/ml, compared with 50 µg/ml) | outer membrane damage (NPN fluorescence) ([2]; 50 µg/ml) | outer membrane damage (NPN fluorescence) ([2]; concentrations lower than 25 µg/ml) | surface roughness of treated Escherichia coli cells (AFM) [5] | antimicrobial activity against fungi [6] | antimicrobial activity against gram-negative and gram-positive bacteria [7] | Minimal Inhibitory Concentration [8] | MBC [9] | MBC [10] | MBC [11] | MBC [12] | MBC [13] | MBC [14] | MBC [15] |
| --- | --- | --- | --- | --- | --- | --- | --- | --- | --- | --- | --- | --- | --- | --- | --- | --- | --- | --- | --- |
| N#CC(C#N)=NNc1cccc(Cl)c1 [CCCP, carbonyl cyanide m-chlorophenyl hydrazone, reference compound] | loss of membrane potential | – | – | – | – | – | – | – | – | – | – | – | – | – | – | – | – | – | – |
| Polymyxin B [PMB, reference compound] | loss of membrane potential | most pronounced effect | – | – | – | – | – | – | – | – | – | – | – | – | – | – | – | – | – |
| CC[C@H](C)[C@H](NC(=O)[C@H](CS)NC(=O)CNC(=O)[C@H](CC(N)=O)NC(=O)[C@@H](N)CCCNC(=N)N)C(=O)N[C@H](C(=O)N[C@@H](CC(=O)O)C(=O)N1CCC[C@H]1C(=O)N[C@@H](CCCNC(=N)N)C(=O)N[C@@H](CS)C(=O)N1CCC[C@H]1C(=O)N[C@@H](Cc1ccc(O)cc1)C(=O)N[C@@H](CCC(N)=O)C(=O)N[C@@H](CCC(N)=O)C(=O)N[C@@H](CS)C(=O)N[C@@H](CCCNC(=N)N)C(=O)N[C@@H](CCCNC(=N)N)C(=O)N1CCC[C@H]1C(=O)N[C@@H](CC(C)C)C(=O)N[C@@H](Cc1ccc(O)cc1)C(=O)N[C@@H](CS)C(=O)N[C@@H](CCCNC(=N)N)C(=O)N[C@@H](CCCNC(=N)N)C(=O)N[C@@H](CCCNC(=N)N)C(=O)O)C(C)C [NCR247] (H-RNGCIVDPRCPYQQCRRPLYCRRR-OH; C-terminus assumed) | loss of membrane potential | – | two | no change in the average height | increased the surface roughness | even weaker | only a mild damage | no effect | increased surface roughness | effective | effective | – | – | – | – | – | – | – | – |
| H-RLNTTFRPLNFKMLRFWGQNRNIMKHRGQKVHFSLILSDCKTNKDCPKLRRANVRCRKSYCVPI [NCR335, cationic nodule-specific cysteine-rich peptide of Medicago truncatula, chemically synthetized, pI 11.22] | loss of membrane potential | equally efficient at 50, 25 and 12.5 µg/ml but provoked a weaker OM permeabilization than PMB | four | – | – | – | – | – | increased surface roughness | effective | effective | 12 µg/mL | 50 µg/mL | 50 µg/mL | 50 µg/mL | 70 µg/mL | 30 µg/mL | 20 µg/mL | 30 µg/mL |
